# Reference: ChEMBL document CHEMBL1147864, “Synthesis of new sugar derivatives from Stachys sieboldi Miq and antibacterial evaluation against Mycobacterium tuberculosis, Mycobacterium avium, and Staphylococcus aureus” (2007)
# Tests used:
# Assay type in all cases: functional
# Details in all cases: 336 h
# [1] = tested on: Mycobacterium tuberculosis; assay: Antibacterial activity against Mycobacterium tuberculosis H37Rv after 2 weeks by broth dilution method
# Staphylococcus aureus [2] = assay: Antibacterial activity against Staphylococcus aureus after 2 weeks by broth dilution method
# Mycobacterium avium = assay: Antibacterial activity against Mycobacterium avium 724S after 2 weeks by broth dilution method
# Staphylococcus aureus [3] = assay: Antibacterial activity against methicillin-resistant Staphylococcus aureus 873 after 2 weeks by broth dilution method
# Staphylococcus aureus [4] = assay: Antibacterial activity against methicillin-resistant Staphylococcus aureus 906 after 2 weeks by broth dilution method
# Staphylococcus aureus [5] = assay: Antibacterial activity against methicillin-resistant Staphylococcus aureus 908 after 2 weeks by broth dilution method
# Staphylococcus aureus [6] = assay: Antibacterial activity against methicillin-resistant Staphylococcus aureus 910 after 2 weeks by broth dilution method
# [7] = tested on: Mycobacterium tuberculosis; assay: Antimycobacterial activity against Mycobacterium tuberculosis A-1-1 after 2 weeks by broth dilution method
# [8] = tested on: Mycobacterium tuberculosis; assay: Antimycobacterial activity against Mycobacterium tuberculosis A-1-2 after 2 weeks by broth dilution method
# [9] = tested on: Mycobacterium tuberculosis; assay: Antimycobacterial activity against Mycobacterium tuberculosis A-1-3 after 2 weeks by broth dilution method
# [10] = tested on: Mycobacterium tuberculosis; assay: Antimycobacterial activity against Mycobacterium tuberculosis A-2-5 after 2 weeks by broth dilution method
# [11] = tested on: Mycobacterium tuberculosis; assay: Antimycobacterial activity against Mycobacterium tuberculosis A-3-1 after 2 weeks by broth dilution method
# [12] = tested on: Mycobacterium tuberculosis; assay: Antimycobacterial activity against Mycobacterium tuberculosis A-3-2 after 2 weeks by broth dilution method
# [13] = tested on: Mycobacterium tuberculosis; assay: Antimycobacterial activity against Mycobacterium tuberculosis A-3-5 after 2 weeks by broth dilution method
# [14] = tested on: Mycobacterium tuberculosis; assay: Antimycobacterial activity against Mycobacterium tuberculosis A-3-6 after 2 weeks by broth dilution method
# [15] = tested on: Mycobacterium tuberculosis; assay: Antimycobacterial activity against Mycobacterium tuberculosis A-3-9 after 2 weeks by broth dilution method
# [16] = tested on: Mycobacterium tuberculosis; assay: Antimycobacterial activity against Mycobacterium tuberculosis A-3-11 after 2 weeks by broth dilution method
# [17] = tested on: Mycobacterium tuberculosis; assay: Antimycobacterial activity against Mycobacterium tuberculosis A-3-12 after 2 weeks by broth dilution method
# [18] = tested on: Mycobacterium tuberculosis; assay: Antimycobacterial activity against Mycobacterium tuberculosis A-3-15 after 2 weeks by broth dilution method
# [19] = tested on: Mycobacterium tuberculosis; assay: Antimycobacterial activity against Mycobacterium tuberculosis A-3-16 after 2 weeks by broth dilution method
# [20] = tested on: Mycobacterium tuberculosis; assay: Antimycobacterial activity against Mycobacterium tuberculosis A-3-17 after 2 weeks by broth dilution method
# [21] = tested on: Mycobacterium tuberculosis; assay: Antimycobacterial activity against Mycobacterium tuberculosis A-3-19 after 2 weeks by broth dilution method
# [22] = tested on: Mycobacterium tuberculosis; assay: Antimycobacterial activity against Mycobacterium tuberculosis A-3-20 after 2 weeks by broth dilution method
# [23] = tested on: Mycobacterium tuberculosis; assay: Antimycobacterial activity against Mycobacterium tuberculosis A-3-21 after 2 weeks by broth dilution method
# [24] = tested on: Mycobacterium tuberculosis; assay: Antimycobacterial activity against Mycobacterium tuberculosis A-3-22 after 2 weeks by broth dilution method
smiles,measurement,setting,value
C=CCO[C@H]1O[C@H](CO[C@H]2O[C@H](CO[C@H]3O[C@H](COC(C)=O)[C@H](OC(C)=O)[C@H](OC(C)=O)[C@H]3OC(C)=O)[C@H](OC(C)=O)[C@H](OC(C)=O)[C@H]2OC(C)=O)[C@@H](OC(C)=O)[C@H](OC(C)=O)[C@H]1OC(C)=O,MIC,[1],> 800 µg/mL
same,MIC,Staphylococcus aureus [2],> 800 µg/mL
C=CCO[C@@H]1O[C@H](CO[C@H]2O[C@H](CO[C@H]3O[C@H](CO)[C@H](O)[C@H](O)[C@H]3O)[C@H](O)[C@H](O)[C@H]2O)[C@@H](O)[C@H](O)[C@H]1O,MIC,[1],> 100 µg/mL
same,MIC,Mycobacterium avium,> 100 µg/mL
same,MIC,Staphylococcus aureus [2],> 100 µg/mL
same,MIC,Staphylococcus aureus [3],100 µg/mL
same,MIC,Staphylococcus aureus [4],> 100 µg/mL
same,MIC,Staphylococcus aureus [5]; read-out: MIC,> 100 µg/mL
same,MIC,Staphylococcus aureus [6],> 100 µg/mL
CC(=O)OC[C@H]1O[C@H](OC[C@H]2O[C@H](OC[C@H]3O[C@@H](OC(C)C)[C@H](OC(C)=O)[C@@H](OC(C)=O)[C@@H]3OC(C)=O)[C@H](OC(C)=O)[C@@H](OC(C)=O)[C@H]2OC(C)=O)[C@H](OC(C)=O)[C@@H](OC(C)=O)[C@H]1OC(C)=O,MIC,[1],> 800 µg/mL
same,MIC,Staphylococcus aureus [2],> 800 µg/mL
CC(=O)OC[C@H](OC(C)=O)[C@@H](OC(C)=O)[C@H](OC(C)=O)[C@@H](CO[C@H]1O[C@H](CO[C@H]2O[C@H](COC(C)=O)[C@H](OC(C)=O)[C@H](OC(C)=O)[C@H]2OC(C)=O)[C@H](OC(C)=O)[C@H](OC(C)=O)[C@H]1OC(C)=O)OC(C)=O,MIC,[1],> 800 µg/mL
same,MIC,Staphylococcus aureus [2],> 800 µg/mL
CCCCO[C@@H]1O[C@H](CO[C@H]2O[C@H](CO[C@H]3O[C@H](COC(C)=O)[C@H](OC(C)=O)[C@H](OC(C)=O)[C@H]3OC(C)=O)[C@H](OC(C)=O)[C@H](OC(C)=O)[C@H]2OC(C)=O)[C@@H](OC(C)=O)[C@H](OC(C)=O)[C@H]1OC(C)=O,MIC,[1],> 800 µg/mL
same,MIC,Staphylococcus aureus [2],> 800 µg/mL
OC[C@H](O)[C@@H](O)[C@H](O)[C@H](O)CO[C@H]1O[C@H](CO[C@H]2O[C@H](CO)[C@H](O)[C@H](O)[C@H]2O)[C@H](O)[C@H](O)[C@H]1O,MIC,[1],> 800 µg/mL
same,MIC,Staphylococcus aureus [2],> 800 µg/mL
C#CCO[C@@H]1O[C@H](CO[C@H]2O[C@H](CO[C@H]3O[C@H](COC(C)=O)[C@H](OC(C)=O)[C@H](OC(C)=O)[C@H]3OC(C)=O)[C@H](OC(C)=O)[C@H](OC(C)=O)[C@H]2OC(C)=O)[C@@H](OC(C)=O)[C@H](OC(C)=O)[C@H]1OC(C)=O,MIC,[1],> 800 µg/mL
same,MIC,Staphylococcus aureus [2],> 800 µg/mL
CCCO[C@@H]1O[C@H](CO[C@H]2O[C@H](CO[C@H]3O[C@H](COC(C)=O)[C@H](OC(C)=O)[C@H](OC(C)=O)[C@H]3OC(C)=O)[C@H](OC(C)=O)[C@H](OC(C)=O)[C@H]2OC(C)=O)[C@@H](OC(C)=O)[C@H](OC(C)=O)[C@H]1OC(C)=O,MIC,[1],> 800 µg/mL
same,MIC,Staphylococcus aureus [2],> 800 µg/mL
NNC(=O)c1ccncc1 [ISONIAZID],MIC,[1],0.075 µg/mL
same,MIC,Mycobacterium avium,12.5 µg/mL
same,MIC,Staphylococcus aureus [2],> 100 µg/mL
same,MIC,Staphylococcus aureus [3],> 100 µg/mL
same,MIC,Staphylococcus aureus [5]; read-out: MIC,> 100 µg/mL
same,MIC,Staphylococcus aureus [6],> 100 µg/mL
CN[C@@H]1[C@H](O[C@H]2[C@H](O[C@H]3[C@H](O)[C@@H](O)[C@H](N=C(N)N)[C@@H](O)[C@@H]3N=C(N)N)O[C@@H](C)[C@]2(O)C=O)O[C@@H](CO)[C@H](O)[C@H]1O (stereo in doubt) [STREPTOMYCIN],MIC,[1],0.2 µg/mL
same,MIC,Mycobacterium avium,0.4 µg/mL
same,MIC,Staphylococcus aureus [2],100 µg/mL
same,MIC,Staphylococcus aureus [3],> 100 µg/mL
same,MIC,Staphylococcus aureus [4],100 µg/mL
CO[C@H]1/C=C/O[C@@]2(C)Oc3c(C)c(O)c4c(O)c(c(/C=N/N5CCN(C)CC5)c(O)c4c3C2=O)NC(=O)/C(C)=C\C=C\[C@H](C)[C@H](O)[C@@H](C)[C@@H](O)[C@@H](C)[C@H](OC(C)=O)[C@@H]1C [RIFAMPIN],MIC,[1],> 0.008 µg/mL
same,MIC,Mycobacterium avium,0.004 µg/mL
same,MIC,Staphylococcus aureus [2],0.004 µg/mL
same,MIC,Staphylococcus aureus [3],0.004 µg/mL
same,MIC,Staphylococcus aureus [4],0.004 µg/mL
same,MIC,Staphylococcus aureus [5],0.004 µg/mL
same,MIC,Staphylococcus aureus [6],0.004 µg/mL
C=CCO [ALLYL ALCOHOL],MIC,[1],> 400 µg/mL
same,MIC,Staphylococcus aureus [2],> 400 µg/mL
C=CCO[C@@H]1O[C@H](CO[C@H]2O[C@H](CO[C@H]3O[C@H](COC(C)=O)[C@H](OC(C)=O)[C@H](OC(C)=O)[C@H]3OC(C)=O)[C@H](OC(C)=O)[C@H](OC(C)=O)[C@H]2OC(C)=O)[C@@H](OC(C)=O)[C@H](OC(C)=O)[C@H]1OC(C)=O,MIC,[1],3.13 µg/mL
same,MIC,Mycobacterium avium,3.13 µg/mL
same,MIC,Staphylococcus aureus [2],3.13 µg/mL
same,MIC,Staphylococcus aureus [3],3.77 µg/mL
same,MIC,Staphylococcus aureus [4],15.1 µg/mL
same,MIC,Staphylococcus aureus [5]; read-out: MIC,7.54 µg/mL
same,MIC,Staphylococcus aureus [6],15.1 µg/mL
same,MIC,[7],6.25 µg/mL
same,MIC,[8],6.25 µg/mL
same,MIC,[9],6.25 µg/mL
same,MIC,[10],12.5 µg/mL
same,MIC,[11],25 µg/mL
same,MIC,[12],25 µg/mL
same,MIC,[13],6.25 µg/mL
same,MIC,[14],6.25 µg/mL
same,MIC,[15],3.13 µg/mL
same,MIC,[16],3.13 µg/mL
same,MIC,[17],6.25 µg/mL
same,MIC,[18],3.13 µg/mL
same,MIC,[19],6.25 µg/mL
same,MIC,[20],3.13 µg/mL
same,MIC,[21],3.13 µg/mL
same,MIC,[22],6.25 µg/mL
same,MIC,[23],6.25 µg/mL
same,MIC,[24],3.13 µg/mL
C/C=C/CO[C@@H]1O[C@H](CO[C@H]2O[C@H](CO[C@H]3O[C@H](COC(C)=O)[C@H](OC(C)=O)[C@H](OC(C)=O)[C@H]3OC(C)=O)[C@H](OC(C)=O)[C@H](OC(C)=O)[C@H]2OC(C)=O)[C@@H](OC(C)=O)[C@H](OC(C)=O)[C@H]1OC(C)=O,MIC,[1],> 400 µg/mL
same,MIC,Staphylococcus aureus [2],> 400 µg/mL
C=CCN=C=S [ALLYL ISOTHIOCYANATE],MIC,[1],> 800 µg/mL
same,MIC,Staphylococcus aureus [2],> 800 µg/mL
CCO[C@@H]1O[C@H](CO[C@H]2O[C@H](CO[C@H]3O[C@H](COC(C)=O)[C@H](OC(C)=O)[C@H](OC(C)=O)[C@H]3OC(C)=O)[C@H](OC(C)=O)[C@H](OC(C)=O)[C@H]2OC(C)=O)[C@@H](OC(C)=O)[C@H](OC(C)=O)[C@H]1OC(C)=O,MIC,[1],> 800 µg/mL
same,MIC,Staphylococcus aureus [2],> 800 µg/mL
CO[C@@H]1O[C@H](CO[C@H]2O[C@H](CO[C@H]3O[C@H](COC(C)=O)[C@H](OC(C)=O)[C@H](OC(C)=O)[C@H]3OC(C)=O)[C@H](OC(C)=O)[C@H](OC(C)=O)[C@H]2OC(C)=O)[C@@H](OC(C)=O)[C@H](OC(C)=O)[C@H]1OC(C)=O,MIC,[1],> 800 µg/mL
same,MIC,Staphylococcus aureus [2],> 800 µg/mL
CC[C@@H](CO)NCCN[C@@H](CC)CO [ETHAMBUTOL],MIC,[1],1.25 µg/mL
same,MIC,Mycobacterium avium,3 µg/mL
same,MIC,Staphylococcus aureus [2],> 100 µg/mL
same,MIC,Staphylococcus aureus [3],> 100 µg/mL
same,MIC,Staphylococcus aureus [4],> 100 µg/mL
same,MIC,Staphylococcus aureus [5]; read-out: MIC,> 100 µg/mL
same,MIC,Staphylococcus aureus [6],> 100 µg/mL
